Reference: patent US11422132B2, “Peptides and uses thereof for diagnosing and treating myasthenia gravis” (The Regents of the University of California, priority 2016, dated 2022)
Entries after “also recorded” stand apart in the source; their conditions may differ.

How the values were obtained:
Format in all cases: binding, rat
mAb 35 [1] = assay: Western blot of peptide-IChBD fusion proteins probed with mAb 35; design: key to mAb 35, fold-change in binding relative to Torpedo 39MIR: ‘—’ denotes no binding; settings: for mAb 35 binding, result in words: Western blot; for mAb 35 binding relative to binding to the Torpedo 39MIR: FIG. 5 Western blots, Torpedo 39MIR single mutants; for mAb 35, fold-change in binding relative to Torpedo 39MIR: Table 1, Western blot of FIG. 5, Torpedo 39MIR single mutants
Procedure: (§1) Chitin beads adsorbed with peptide-IChBD fusion proteins were run on an SDS-PAGE gel and transferred to a nitrocellulose membrane and assayed with the four mAbs.
(§2) Chitin beads adsorbed with peptide-IChBD fusion proteins were run on an SDS-PAGE gel and transferred to a nitrocellulose membrane and assayed with the five mAbs.
(§3) To explore the effects of individual amino acid substitutions between the Torpedo and the human AChR MIR mimics, eight peptides were prepared, each with an amino acid substituted from the human sequence into the Torpedo sequence. The single amino acid substitutions in the Torpedo MIR were: N10K (SEQ ID NO:11), L12F (SEQ ID NO:12), R66K (SEQ ID NO:13), A70D (SEQ ID NO:14), I75V (SEQ ID NO:15), R79H (SEQ ID NO:16), D111Q (SEQ ID NO:17), and K115H (SEQ ID NO:18).

mAb 132A [2] = assay: Western blot of peptide-IChBD fusion proteins probed with mAb 132A; settings: for mAb 132A binding, result in words: Western blot; for mAb 132A binding relative to binding to the Torpedo 39MIR: FIG. 5 Western blots, Torpedo 39MIR single mutants; for mAb 132A, fold-change in binding relative to Torpedo 39MIR: Table 1, Western blot of FIG. 5, Torpedo 39MIR single mutants
Procedure: as §1, §2, §3

mAb 198 = assay: Western blot of peptide-IChBD fusion proteins probed with mAb 198; settings: for mAb 198 binding, result in words: Western blot; for mAb 198 binding compared to its binding to the human 39MIR: human 39MIR mutants, relative to human 39MIR; for mAb 198 binding relative to Torpedo 39MIR: FIG. 5 Western blots, Torpedo 39MIR single mutants
Description: as §1, §2
The Torpedo (SEQ ID NO:9) and human (SEQ ID NO:8) 39MIRs were made by joining the α(1-12), α(65-79), and α(110-115) segments of their respective a subunits with GS linkers. These two MIR mimics were expressed in E. coli as fusion proteins with an IChBD tag to permit peptide collection on chitin beads. These two peptides differ from each other by eight amino acids (FIG. 2). Both mimics were probed with mAb 198. mAb 198, which was derived from rats that had been immunized with human muscle AChR, is a MIR-directed mAb that binds mammalian as well as Torpedo MIR (13,21). It was also able to passively transfer EAMG to rats and binds to both native assembled AChR and to α-subunit fragments in Western blots (22,23). mAb 198 binds to the Torpedo and human MIR peptide mimics in Western blots (FIG. 3). However, mAb 198 binds to the Torpedo mimic about 50 times more strongly than to the human MIR mimic (FIG. 3).
as §3

mAb 35 [3] = assay: Western blot of peptide-IChBD fusion proteins probed with mAb 35; design: key to mAb 35, fold-change in binding relative to Torpedo 39MIR: ‘—’ denotes no binding; settings: for mAb 35 binding compared to the Torpedo 39MIR peptide: single point mutated human 39MIR peptides
mAb 132A [4] = assay: Western blot of peptide-IChBD fusion proteins probed with mAb 132A; design: key to mAb 132A, fold-change in binding relative to Torpedo 39MIR: ‘—’ denotes no binding
mAb 334 = assay: Western blot of peptide-IChBD fusion proteins probed with mAb 334; settings: for mAb 334 binding relative to Torpedo 39MIR: FIG. 5 Western blots, Torpedo 39MIR single mutants; for mAb 334, fold-change in binding relative to Torpedo 39MIR: Table 1, Western blot of FIG. 5, Torpedo 39MIR single mutants
Procedure: as §2, §3

[5] = Table 2, Western blot of FIG. 7, human 39MIR multiple mutants
[6] = Table 3, single-substitution human 39MIR mutants
[7] = Table 1, Western blot of FIG. 5, Torpedo 39MIR single mutants

Sequence | mAb 35 binding, result in words (mAb 35 [1]) | mAb 35 binding relative to binding to the Torpedo 39MIR (mAb 35 [1]) | mAb 35, fold-change in binding relative to Torpedo 39MIR (mAb 35 [1]) | mAb 132A binding relative to binding to the Torpedo 39MIR (mAb 132A [2]) | mAb 132A, fold-change in binding relative to Torpedo 39MIR (mAb 132A [2]) | mAb 198, fold-change in binding relative to Torpedo 39MIR (mAb 198; [7]) | mAb 334 binding relative to Torpedo 39MIR (mAb 334) | mAb 334, fold-change in binding relative to Torpedo 39MIR (mAb 334) | further results
SEHETRLVAKLFGGGSLKWNPDDYGGIKKIHGSLDYTGH (synthetic main immunogenic region (MIR) peptide) [V75I/Q111D, Human MIR double mutant (V75I/Q111D)] | restored binding |  |  |  |  |  |  |  | mAb 132A binding, result in words (mAb 132A [2]): restored binding; mAb 198, fold-change in binding relative to Torpedo 39MIR (mAb 198; [5]): 2.71 fold-change; mAb 198 binding, result in words (mAb 198): restored binding; mAb 35, fold-change in binding relative to Torpedo 39MIR (mAb 35 [3]; [5]): 0.92 fold-change; mAb 132A, fold-change in binding relative to Torpedo 39MIR (mAb 132A [4]; [5]): 3.34 fold-change
SEHETRLVAKLFGGGSLKWNPDDYGGVKKIHGSLDYTGH [Q111D] (synthetic main immunogenic region (MIR) peptide) [Mutant Q111D, Human 39MIR single mutant (Q111D)] | restored mAb 35 binding |  |  |  |  |  |  |  | mAb 198, fold-change in binding relative to Torpedo 39MIR (mAb 198; [6]): 0.59 fold-change; mAb 198 binding compared to its binding to the human 39MIR (mAb 198): 35.7 ×; mAb 35, fold-change in binding relative to Torpedo 39MIR (mAb 35 [3]; [6]): 0.06 fold-change; mAb 35 binding compared to the Torpedo 39MIR peptide (mAb 35 [3]): 0.06; mAb 132A, fold-change in binding relative to Torpedo 39MIR (mAb 132A [4]; [6]): —
SEHETRLVAKLLGGGSLRWNPADYGGIKKIRGSLDYTGK (synthetic main immunogenic region (MIR) peptide) [Mutant N10K, Torpedo 39MIR single mutant (N10K)] |  | 0.29 × | 0.29 fold-change | 0.03 × | 0.03 fold-change | 0.82 fold-change | 0.59 × | 0.59 fold-change | mAb 198 binding relative to Torpedo 39MIR (mAb 198): 0.82 ×
SEHETRLVANLLGGGSLRWNPADYGGIKKIHGSLDYTGK (synthetic main immunogenic region (MIR) peptide) [Mutant R79H, Torpedo 39MIR single mutant (R79H)] |  | 1.91 × | 1.91 fold-change | 1.65 × | 1.65 fold-change | 0.97 fold-change | 2.40 × | 2.40 fold-change | 
SEHETRLVANLFGGGSLRWNPADYGGIKKIRGSLDYTGK (synthetic main immunogenic region (MIR) peptide) [Mutant L12F, Torpedo 39MIR single mutant (L12F)] |  | 1.42 × | 1.42 fold-change | 1.10 × | 1.10 fold-change | 0.90 fold-change | 0.88 × | 0.88 fold-change | 
SEHETRLVANLLGGGSLKWNPADYGGIKKIRGSLDYTGK (synthetic main immunogenic region (MIR) peptide) [Mutant R66K, Torpedo 39MIR single mutant (R66K)] |  | 0.62 × | 0.62 fold-change | 1.55 × | 1.55 fold-change | 1.03 fold-change | 2.75 × | 2.75 fold-change | 
SEHETRLVAKLFGGGSLKWNPDDYGGVKKIHGSLDYTGH [rat 39 MIR] (synthetic main immunogenic region (MIR) peptide) [Mouse 39MIR; rat/mouse 39MIR homolog] | did not bind |  |  |  |  |  |  |  | mAb 132A binding, result in words (mAb 132A [2]): did not bind
SEHETRLVAKLFGGGSLKWNPADYGGVKKIHGSLQYTGH (synthetic main immunogenic region (MIR) peptide) [Mutant D70A, Human 39MIR single mutant (D70A)] | failed to restore mAb 35 binding |  |  |  |  |  |  |  | mAb 198, fold-change in binding relative to Torpedo 39MIR (mAb 198; [6]): 0.02 fold-change; mAb 198 binding, result in words (mAb 198): comparable to binding to human 39MIR; mAb 35, fold-change in binding relative to Torpedo 39MIR (mAb 35 [3]; [6]): —; mAb 132A, fold-change in binding relative to Torpedo 39MIR (mAb 132A [4]; [6]): —
SEHETRLVANLFGGGSLKWNPDDYGGVKKIHGSLQYTGH (synthetic main immunogenic region (MIR) peptide) [Mutant K10N, Human 39MIR single mutant (K10N)] | restored mAb 35 binding |  |  |  |  |  |  |  | mAb 198, fold-change in binding relative to Torpedo 39MIR (mAb 198; [6]): 0.23 fold-change; mAb 198 binding compared to its binding to the human 39MIR (mAb 198): 13 ×; mAb 35, fold-change in binding relative to Torpedo 39MIR (mAb 35 [3]; [6]): 0.01 fold-change; mAb 35 binding compared to the Torpedo 39MIR peptide (mAb 35 [3]): 0.01; mAb 132A, fold-change in binding relative to Torpedo 39MIR (mAb 132A [4]; [6]): —
SEHETRLVAKLFGGGSLKWNPDDYGGIKKIHGSLQYTGH (synthetic main immunogenic region (MIR) peptide) [Mutant V75I, Human 39MIR single mutant (V75I)] | restored mAb 35 binding |  |  |  |  |  |  |  | mAb 198, fold-change in binding relative to Torpedo 39MIR (mAb 198; [6]): 0.65 fold-change; mAb 198 binding compared to its binding to the human 39MIR (mAb 198): 40 ×; mAb 35, fold-change in binding relative to Torpedo 39MIR (mAb 35 [3]; [6]): 0.03 fold-change; mAb 35 binding compared to the Torpedo 39MIR peptide (mAb 35 [3]): 0.03; mAb 132A, fold-change in binding relative to Torpedo 39MIR (mAb 132A [4]; [6]): —
SEHETRLVANLLGGGSLRWNPDDYGGIKKIRGSLDYTGK (synthetic main immunogenic region (MIR) peptide) [Mutant A70D, Torpedo 39MIR single mutant (A70D)] |  | 0.93 × | 0.93 fold-change | 0.20 × | 0.20 fold-change | 1.08 fold-change | 1.04 × | 1.04 fold-change | 
SEHETRLVANLLGGGSLRWNPADYGGIKKIRGSLQYTGK (synthetic main immunogenic region (MIR) peptide) [Mutant D111Q, Torpedo 39MIR single mutant (D111Q)] | did not bind |  | — | 0.07 × | 0.07 fold-change | 0.16 fold-change | 0.02 × | 0.02 fold-change | mAb 198 binding relative to Torpedo 39MIR (mAb 198): 0.16 ×
SEHETRLVANLLGGGSLRWNPADYGGVKKIRGSLDYTGK (synthetic main immunogenic region (MIR) peptide) [Mutant I75V, Torpedo 39MIR single mutant (I75V)] | did not bind |  | — | 0.07 × | 0.06 fold-change | 0.16 fold-change | 0.03 × | 0.03 fold-change | mAb 198 binding relative to Torpedo 39MIR (mAb 198): 0.16 ×
SEHETRLVANLLGGGSLRWNPADYGGIKKIRGSLDYTGH (synthetic main immunogenic region (MIR) peptide) [Mutant K115H, Torpedo 39MIR single mutant (K115H)] | did not bind; also recorded: completely abolished |  | — | 0.40 × | 0.40 fold-change | 1.07 fold-change | 0.42 × | 0.42 fold-change | 
